The results in this text go back to US7025067B2, “Activated charcoal filter for effectively reducing p-benzosemiquinone from the mainstream cigarette smoke” (Council of Scientific and Industrial Research, priority 2001, dated 2006).

Read-outs that look alike come from different tables or passages of the source.

As to p-benzosemiquinone [p-BSQ], the “half-life of p-BSQ” value was “about 1.5 hours” (aqueous solution at pH 7.4) and 48 h (solid state at the room temperature).
